This note sets out measurements from patent US9896441B2 (Lycera Corporation, priority 2014, dated 2018).

SMILES strings stand for the structures. Where only a bound is given, the exact number is not on record here.

For experiment [1], the target named is T1, RORγ-LBD (Homo sapiens, UniProt P51449).
T1 construct: made in house; host or cells: SF9 cells (baculovirus); used as diluted lysate
T1 sequence (P51449 269-508 limits assumed): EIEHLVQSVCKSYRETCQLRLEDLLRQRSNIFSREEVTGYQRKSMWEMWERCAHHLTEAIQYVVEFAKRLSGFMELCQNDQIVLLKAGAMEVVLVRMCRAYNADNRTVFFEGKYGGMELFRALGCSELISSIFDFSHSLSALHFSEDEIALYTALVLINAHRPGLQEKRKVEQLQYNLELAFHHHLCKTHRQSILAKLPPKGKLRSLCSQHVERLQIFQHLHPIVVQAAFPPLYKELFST
The experiment can be described thus: RORγ-Ligand Binding Domain (LBD) TR-FRET Assay.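 As to TR-FRET Assay Max Response: 665/615 nm signal ratio set to 100 without ursolic acid or test compound.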 Format: biochemical. To be noted: for TR-FRET Assay Max Response: maximum response. In short, it runs like this:
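SF9 lysate containing His-RORγ-LBD, ~3 nM final; coactivator peptide biotin-SRC1 LXXLL, 200 nM final; ursolic acid 2 μM final; DMSO 1% final; Tris pH 7.0 buffer with KCl, EDTA, DTT, BSA. TR-FRET format.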

For experiment [2], the target named is T2, Gal4-RORγ-LBD (Homo sapiens, UniProt P51449).
T2 construct: expressed in transfected cells
T2 sequence (P51449 269-508 limits assumed): T1 sequence (P51449 269-508 limits assumed)
As to the kind of experiment: Gal4-RORγ Luciferase Reporter Assay in HEK-293T Cells. Format: cell-based. To be noted: HEK-293 cells, luciferase reporter; for Gal4-RORγ Assay Max Response: maximum response. An outline of the steps: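 HEK-293 cells were co-transfected with Gal4-RORγ-LBD and a Gal4-luciferase reporter, then exposed overnight at 37 °C to compounds with […] ursolic acid present (0.2% DMSO). Luminescence was read with One-Glo after 10 min at RT, untreated signal was set as 100, and Max Response was taken as the upper plateau of a 4-parameter logistic fit.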

As a reminder, the EC50 is the concentration that produces a half-maximal response. For `C/C(=C\c1ccc2c(c1)N(S(=O)(=O)c1ccc(F)c(C(F)(F)F)c1)C[C@H](CCC(=O)O)O2)c1c(F)cccc1Cl` [Example 86A, (S,E)-3-(6-(2-(2-chloro-6-fluorophenyl)prop-1-en-1-yl)-4-((4-fluoro-3-(trifluoromethyl)-phenyl)sulfonyl)-3,4-dihydro-2H-benzo[b][1,4]oxazin-2-yl)-propanoic acid], the results for the EC50 in experiment [1] (RORγ-LBD TR-FRET) and in experiment [2] (with ursolic acid) were under 500 nM and 500 to 5000 nM, respectively.

For the compound `COC(=O)CC[C@H]1CN(S(=O)(=O)c2cccc(OC(F)F)c2)c2cc(/C=C/c3ccccn3)ccc2O1` [Example 89D, (S,E)-methyl 3-(4-((3-(difluoromethoxy)phenyl)sulfonyl)-6-(2-(pyridin-2-yl)vinyl)-3,4-dihydro-2H-benzo[b][1,4]oxazin-2-yl)propanoate], the EC50 in experiment [1] (RORγ-LBD TR-FRET) is under 500 nM; in experiment [2] (with ursolic acid), 500 to 5000 nM.

In the case of `O=C(O)C1CCN(C(=O)CC[C@H]2CN(S(=O)(=O)c3cccc(C(F)(F)F)c3)c3cc(/C=C/c4c(F)cccc4Cl)ccc3O2)CC1` [Example 129O, (S,E)-1-(3-(6-(2-chloro-6-fluorostyryl)-4-((3-(trifluoromethyl)phenyl)sulfonyl)-3,4-dihydro-2H-benzo[b][1,4]oxazin-2-yl)propanoyl)piperidine-4-carboxylic acid], in experiment [1] (RORγ-LBD TR-FRET assay), the EC50 was under 500 nM and the “TR-FRET Assay Max Response” value is “*** (a value in the range of greater than 150 to 200)”. In addition, in experiment [2] (in presence of ursolic acid), the EC50 was under 500 nM and the “Gal4-RORγ Assay Max Response” value was “** (a value in the range of greater than 90 to 150)”.

For the compound `C/C(=C\c1ccc2c(c1)N(S(=O)(=O)c1cccc(C(F)(F)F)c1)C[C@H](OC(C)(C)C(=O)O)C2)c1c(F)cccc1Cl` [Example 173F, (R,E)-2-((7-(2-(2-chloro-6-fluorophenyl)prop-1-en-1-yl)-1-((3-(trifluoromethyl)phenyl)-sulfonyl)-1,2,3,4-tetrahydroquinolin-3-yl)oxy)-2-methylpropanoic acid], in experiment [1] (RORγ-LBD TR-FRET assay), the EC50 is under 500 nM and the “TR-FRET Assay Max Response” value is “*** (a value in the range of greater than 150 to 200)”. In experiment [2] (in presence of ursolic acid), the EC50 is under 500 nM and the “Gal4-RORγ Assay Max Response” value was “** (a value in the range of greater than 90 to 150)”.

With `COC(=O)CC[C@H]1CN(S(=O)(=O)c2cccc(C(F)(F)F)c2)c2cc(/C=C(\C)c3c(F)cccc3Cl)cc(F)c2O1` [Example 49, (S,E)-Methyl 3-(6-(2-(2-chloro-6-fluorophenyl)prop-1-en-1-yl)-8-fluoro-4-((3-(trifluoromethyl)phenyl)sulfonyl)-3,4-dihydro-2H-benzo[b][1,4]oxazin-2-yl)propanoate], the EC50 is under 500 nM in experiment [1] (RORγ-LBD TR-FRET) and 500 to 5000 nM in experiment [2] (with ursolic acid).

Consider `COC(=O)CC[C@H]1CN(S(=O)(=O)c2cccc(OC(F)F)c2)c2cc(/C=C(\C)c3c(F)cccc3Cl)ccc2O1` [Example 86P, (S,E)-methyl 3-(6-(2-(2-chloro-6-fluorophenyl)prop-1-en-1-yl)-4-((3-(difluoromethoxy)phenyl)-sulfonyl)-3,4-dihydro-2H-benzo[b][1,4]oxazin-2-yl)propanoate], for which the EC50 in experiment [1] (RORγ-LBD TR-FRET) was under 500 nM; in experiment [2] (with ursolic acid) it was 500 to 5000 nM.

For `C/C(=C\c1ccc2c(c1)N(S(=O)(=O)c1ccc(C)c(C(F)(F)F)c1)C[C@H](CCC(=O)O)O2)c1c(F)cccc1Cl` [Example 86AO, (S,E)-3-(6-(2-(2-chloro-6-fluorophenyl)prop-1-en-1-yl)-4-((4-methyl-3-(trifluoromethyl)-phenyl)sulfonyl)-3,4-dihydro-2H-benzo[b][1,4]oxazin-2-yl)propanoic acid], the EC50 in experiment [1] (RORγ-LBD TR-FRET) and in experiment [2] (with ursolic acid) was under 500 nM each time.

Turning to `COC(=O)CC[C@H]1CN(S(=O)(=O)c2cc(C(F)(F)F)cnc2OCCCO)c2cc(/C=C/c3c(F)cccc3Cl)ccc2O1` [Example 89FD, methyl (S,E)-3-(6-(2-chloro-6-fluorostyryl)-4-((2-(3-hydroxypropoxy)-5-(trifluoromethyl)pyridin-3-yl)sulfonyl)-3,4-dihydro-2H-benzo[b][1,4]-oxazin-2-yl)propanoate], the EC50 in experiment [1] (RORγ-LBD TR-FRET) is under 500 nM; in experiment [2] (with ursolic acid) it was 500 to 5000 nM.

With `CCOc1ncc(C(F)(F)F)cc1S(=O)(=O)N1C[C@H](CCC(=O)OC)Oc2ccc(/C=C(\C)c3c(Cl)cccc3C(F)(F)F)cc21` [Example 76, Methyl (S,E)-3-(6-(2-(2-chloro-6-(trifluoromethyl)phenyl)prop-1-en-1-yl)-4-((2-ethoxy-5-(trifluoromethyl)pyridin-3-yl)sulfonyl)-3,4-dihydro-2H-benzo[b][1,4]oxazin-2-yl)propanoate], the 50% effective concentration (EC50) was under 500 nM in experiment [1] (RORγ-LBD TR-FRET) and 500 to 5000 nM in experiment [2] (with ursolic acid).

As to `COc1ccccc1/C=C/c1ccc2c(c1)N(S(=O)(=O)c1cccc(OC(F)F)c1)C[C@H](CCC(=O)O)O2` [Example 89AY, (S,E)-3-(4-((3-(difluoromethoxy)phenyl)sulfonyl)-6-(2-methoxystyryl)-3,4-dihydro-2H-benzo[b][1,4]oxazin-2-yl)propanoic acid], the EC50 in experiment [1] (RORγ-LBD TR-FRET) is under 500 nM; in experiment [2] (with ursolic acid), 500 to 5000 nM.

For `C[C@@H]1[C@H](O)Cc2ccc(/C=C/c3c(F)cccc3Cl)cc2N1S(=O)(=O)c1cccc(C(F)(F)F)c1` (racemic) [Example 170, (2R,3R)-7-((E)-2-Chloro-6-fluorostyryl)-2-methyl-1-((3-(trifluoromethyl)phenyl)sulfonyl)-1,2,3,4-tetrahydroquinolin-3-ol], in experiment [1] (RORγ-LBD TR-FRET assay), the EC50 was under 500 nM and the “TR-FRET Assay Max Response” value is “*** (a value in the range of greater than 150 to 200)”. Moreover, in experiment [2] (in presence of ursolic acid), the EC50 was 500 to 5000 nM and the “Gal4-RORγ Assay Max Response” value was “*** (a value in the range of greater than 150 to 200)”.

Consider `COC(=O)CC[C@H]1CN(S(=O)(=O)c2cccc(C(F)(F)F)c2)c2c(ccc(/C=C(\C)c3c(F)cccc3Cl)c2C)O1` [Example 57, Methyl (S,E)-3-(6-(2-(2-chloro-6-fluorophenyl)prop-1-en-1-yl)-5-methyl-4-((3-(trifluoromethyl)phenyl)sulfonyl)-3,4-dihydro-2H-benzo[b][1,4]oxazin-2-yl)propanoate], for which the EC50 in experiment [1] (RORγ-LBD TR-FRET) is under 500 nM; in experiment [2] (with ursolic acid) it was over 10000 nM.

Turning to `CCOc1nn(CC)cc1S(=O)(=O)N1C[C@H](CCC(=O)OC)Oc2ccc(/C=C(\C)c3c(F)cccc3Cl)cc21` [Example 86J, (S,E)-methyl 3-(6-(2-(2-chloro-6-fluorophenyl)prop-1-en-1-yl)-4-((3-ethoxy-1-ethyl-1H-pyrazol-4-yl)sulfonyl)-3,4-dihydro-2H-benzo[b][1,4]oxazin-2-yl)propanoate], the EC50 in experiment [1] (RORγ-LBD TR-FRET) and in experiment [2] (with ursolic acid) was under 500 nM throughout.

As to `CC(=O)NCC1CC(S(=O)(=O)c2cccc(C(F)(F)F)c2)c2cc(/C=C(\C)c3c(F)cccc3Cl)ccc2O1` (centres unmarked) [Example 181, (E)-N-((6-(2-(2-Chloro-6-fluorophenyl)prop-1-en-1-yl)-4-((3-(trifluoromethyl)phenyl)sulfonyl)chroman-2-yl)methyl)acetamide], in experiment [1] (RORγ-LBD TR-FRET assay), the EC50 is under 500 nM and the “TR-FRET Assay Max Response” value is given as “** (a value in the range of greater than 90 to 150)”. Further, in experiment [2] (in presence of ursolic acid), the EC50 is under 500 nM and the “Gal4-RORγ Assay Max Response” value was “** (a value in the range of greater than 90 to 150)”.

Regarding `COC(=O)CC[C@H]1CN(S(=O)(=O)c2cccc(C(F)(F)F)c2)c2cc(/C=C(\C)c3c(C)noc3C)ccc2O1` [Example 86AD, (S,E)-methyl 3-(6-(2-(3,5-dimethylisoxazol-4-yl)prop-1-en-1-yl)-4-((3-(trifluoromethyl)-phenyl)sulfonyl)-3,4-dihydro-2H-benzo[b][1,4]oxazin-2-yl)-propanoate], the EC50 was under 500 nM in experiment [1] (RORγ-LBD TR-FRET) and 500 to 5000 nM in experiment [2] (with ursolic acid).
